In PubChem BioAssay AID588523 (Johns Hopkins Ion Channel Center, 2011):
Active and inactive are the calls of the source.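 The calls were made as follows: active = IC50 below 100 µM from duplicate concentration-response curves; inactive = IC50 above 100 µM.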

Target: Regulator of G-protein signaling 4 (Rattus norvegicus) (UniProt P49799)
Assay: RGS4 binding to activated Galpha-o blockers – biochemical, rat RGS4, AlF4-dependent, flow cytometry bead assay, dose response (AID 588523)
Settings: FCPIA, bead fluorescence

Sequence of Regulator of G-protein signaling 4 (Rattus norvegicus) (P49799 whole entry, looked up): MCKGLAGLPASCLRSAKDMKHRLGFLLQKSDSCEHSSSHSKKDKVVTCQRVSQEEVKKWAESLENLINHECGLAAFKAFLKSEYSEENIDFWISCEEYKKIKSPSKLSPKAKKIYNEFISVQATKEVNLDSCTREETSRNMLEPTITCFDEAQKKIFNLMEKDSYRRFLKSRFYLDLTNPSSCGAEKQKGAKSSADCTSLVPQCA

Structure (SMILES) | IC50
O=C(CCNc1ccc(F)cc1)c1ccco1 | > 110 µM (inactive)
CCOC(=O)/C=C/C(=O)OCC(=O)N1CCN(C(=O)c2ccco2)CC1 | 73.9 µM
Cc1cccc(N2C(=O)/C(=C/c3ccc(C(=O)O)cc3)c3ccccc3C2=O)c1 | > 110 µM (inactive)
CCCN1CCc2cc(O)cc3c2[C@H]1Cc1ccc(O)c(O)c1-3 | 9.4 µM
CN(C)c1oc(-c2ccccc2[N+](=O)[O-])nc1C#N | > 110 µM (inactive)
Cc1nc2c(=O)n(C)c(=O)n(C)c2nc1Cl | 78.7 µM
COC(=O)CSc1[nH]c2ccccc2c1[N+](=O)[O-] | > 110 µM (inactive)
Cn1c(OCc2ccco2)nc2c1c(=O)n(Cc1ccc(Cl)c(Cl)c1)c(=O)n2C | > 110 µM (inactive)
CN(C)c1ccc(C(C[N+](=O)[O-])c2c(N)n(C)c(=O)n(C)c2=O)c(F)c1C#N (stereo not drawn) | > 110 µM (inactive)
CC(C)OP(=O)(OC(C)C)/C(C=O)=N\Nc1ccc([N+](=O)[O-])cc1 | > 110 µM (inactive)
O=C1/C(=C\c2ccc(Cl)c(Cl)c2)N2CCC1CC2 | > 110 µM (inactive)
N#C/C(=C/c1ccc(Cl)c([N+](=O)[O-])c1)c1ccccn1 | > 110 µM (inactive)
O=[N+]([O-])c1ccc(O)c(/C=N/NC(=S)Nc2ccc(Cl)cc2Cl)c1 | > 110 µM (inactive)
O=C(/C=C/c1ccc([N+](=O)[O-])cc1)c1ccco1 | > 110 µM (inactive)
CCOC(=O)C1=C(O)/C(=C\c2cccc(OC)c2)N=C1C | > 110 µM (inactive)
COc1ccc(NC(=O)/C(Cl)=C(/Cl)S(=O)Cc2ccccc2)cn1 (stereo not drawn) | 1.7 µM
COc1ccc(OC)c(N2C(=O)NC(=O)/C(=C/c3ccc([N+](=O)[O-])s3)C2=O)c1 | 11.9 µM
Cc1ccccc1OCc1nnc(SCC(=O)Nc2ccc3c(c2)oc2ccccc23)n1C | > 110 µM (inactive)
Oc1c(Cl)cc(Cl)c2c1NCCC2 | > 110 µM (inactive)
COc1cc2c(cc1O)C(SC)=NC(C)(C)C2 | > 110 µM (inactive)

Structure (SMILES) | IC50
O=C1NC(=S)N(c2ccccc2F)C(=O)/C1=C\c1cccs1 | 21.3 µM
CC1=NN(c2ccc(C(=O)O)cc2)C(=O)/C1=C\c1ccc(OC(=O)c2cccs2)cc1 | 44 µM
Cc1ccc(C(C2=C(O)CC(C)(C)CC2=O)C2C(=O)CC(C)(C)CC2=O)o1 (stereo not drawn) | > 110 µM (inactive)
Cc1cc(-c2n[nH]c(=S)n2/N=C/C(Br)=C/c2ccccc2)n[nH]1 | 26.1 µM
CC(C)(C)c1ccc(Cn2nnc3c(=O)[nH]c(C4CCN(C(=O)Cc5cccs5)CC4)nc32)cc1 | > 110 µM (inactive)
Cc1ccc(C(C2C(=O)CC(C)(C)CC2=O)C2C(=O)CC(C)(C)CC2=O)s1 | 86.8 µM
O=C(/C=C/c1ccncc1)c1ccc2c(c1)OCCO2 | 82.2 µM
CN1CCc2cc(O)cc3c2[C@H]1Cc1ccc(O)c(O)c1-3 | 7.5 µM
Cc1ccc(/C=C2\C(=O)NC(=S)N(c3ccc(F)cc3)C2=O)s1 | 22.1 µM
O=C(N/N=C/c1cc([N+](=O)[O-])ccc1O)NC12CC3CC(CC(C3)C1)C2 | > 110 µM (inactive)
O=C1/C(=C/c2ccncc2)CCC/C1=C\c1ccncc1 | 13.6 µM
CCOCCCNC(=O)/C(C#N)=C\c1ccc([N+](=O)[O-])o1 | > 110 µM (inactive)
N[C@@H](Cc1cc(Br)c(O)c(Br)c1)C(=O)O | > 110 µM (inactive)
O=C(O)c1ccc2c(c1)C(=O)N(c1cccc(C(=O)/C=C/c3ccccc3)c1)C2=O | > 110 µM (inactive)
CN(C)C(=O)COc1ccc(C(=O)/C=C/c2cccnc2)cc1 | > 110 µM (inactive)
CN1C/C(=C/c2ccncc2)C(=O)/C(=C/c2ccncc2)C1 | 5.4 µM
CN1C(=O)/C(=C\c2ccc(Br)s2)C(=O)NC1=S | 12.5 µM
O=C1/C(=C\c2ccc(Cl)cc2Cl)N2CCC1CC2 | > 110 µM (inactive)
O=C/C=C/c1c(-c2ccccc2)cc2oc3ccccc3cc1-2 | > 110 µM (inactive)
O=C1N=c2ccccc2=C1c1c(O)n(-c2cccc(F)c2)[nH]c1=O | 10.3 µM

Structure (SMILES) | IC50
CC1=NOC(=O)/C1=C/c1ccc(O)cc1 | > 110 µM (inactive)
CCOCCCNC(=O)/C(C#N)=C\c1ccc(Cl)c([N+](=O)[O-])c1 | > 110 µM (inactive)
Cc1cc2nc(CS)[nH]c2cc1C | 23.6 µM
Cc1ccc(CNC(=O)c2cn(C3CCCCC3)c(=O)c3c2c2ccccc2n3C)o1 | > 110 µM (inactive)
COc1ccc(C(C[N+](=O)[O-])c2c(-c3ccccc3)cc3ccccn23)cc1OC (stereo not drawn) | > 110 µM (inactive)
COc1cccc(/C=C/C(=O)c2c(O)cc(C)oc2=O)c1O | > 110 µM (inactive)
O=C(O)c1ccc(/C=C2\COc3ccccc3C2=O)cc1 | > 110 µM (inactive)
Cc1csc(NC(=O)COCC(=O)O)c1-c1nc2ccccc2s1 | > 110 µM (inactive)
Cc1ccc(/C=C/C(=O)N2CC(C)CC(C)C2)o1 (stereo not drawn) | 74.9 µM
COC(=O)CSc1[nH]c2cc(C)ccc2c1[N+](=O)[O-] | > 110 µM (inactive)
COc1ccc(-c2csc(NC3OC(=O)c4c3ccc(OC)c4OC)n2)cc1OC (stereo not drawn) | > 110 µM (inactive)
COc1ccc2cc(C3C(C#N)=C(N)OC(C)=C3C(C)=O)c(Cl)nc2c1 (stereo not drawn) | > 110 µM (inactive)
NC(=O)N/N=C/c1c(Sc2nnnn2-c2ccccc2)nc2ccccn2c1=O | > 110 µM (inactive)
CN1C(=O)S/C(=C\c2ccccc2OCc2ccc(C(=O)O)cc2)C1=O | > 110 µM (inactive)
O=C(O)c1ccc(/C=C/C(=O)c2ccc3c(c2)OCCCO3)cc1 | > 110 µM (inactive)
O=C1C=C(NC2=CC3OC(c4ccccc4)OCC3OC2=O)CCC1 (stereo not drawn) | > 110 µM (inactive)
Cc1c(NC(=O)c2coc(=O)c(Br)c2)c(=O)n(-c2ccccc2)n1C | > 110 µM (inactive)
COc1ccc(NC(=O)/C(C#N)=C\c2ccc(Sc3nncn3C)c([N+](=O)[O-])c2)cc1 | > 110 µM (inactive)
